{"source": "patent US9844563B2", "about": "“Compositions, kits, and methods to induce acquired cytoresistance using stress protein inducers” (FRED HUTCHINSON CANCER RESEARCH CENTER, priority 2014, dated 2017)", "key": {"HO-1 mRNA": {"tested_on": "HO-1 mRNA", "assay": "Renal cortical HO-1 mRNA (RT-PCR) after IV myoglobin, SnPP or both", "type": "in vivo, mice", "conditions": "4 hrs post IV injection", "description": "The Glycerol Model of AKI. This is a widely used model of rhabdomyolysis-induced AKI that has been employed worldwide for 50 years. The model was used to test whether prophylactic interventions confer protection against AKI. Basically, the protocol is as follows: Male CD-1 mice (35-45 grams), obtained from Charles River Laboratories, Wilmington, Mass. were studied. Mice were maintained under standard vivarium conditions and generally housed for 1-3 weeks prior to study. The mice were placed in a cylindrical restraining cage, and then were given a tail vein injection of the test substances (see below) or test substance vehicle. The mice were then returned to their cages. Eighteen hours (hrs) later, the mice were briefly anesthetized by isoflurane inhalation, and given an intramuscular injection of hypertonic (50%) glycerol in a dose of 9 ml/Kg body weight. The dose is divided in two, with half injected into the muscle of each of the hind limbs. The mice were then returned to their cages. Eighteen hrs later, the mice were deeply anesthetized with pentobarbital (50-100 mg/Kg), the abdominal cavity was opened through a midline abdominal incision, a blood sample was obtained from the abdominal vena cava and the kidneys were resected. A kidney cross section was obtained and fixed in formalin for subsequent histologic analysis. The terminal blood samples were analyzed for BUN and creatinine, using commercially available assay kits. The remaining kidney tissue was subjected to cortical dissection, and the cortical tissues were then extracted for protein and RNA. The protein samples were saved for analysis of HO-1 levels, and the RNA samples were subjected to RT-PCR to quantify HO-1 mRNA as well as levels of other stress gene mRNAs (e.g. NGAL, haptoglobin, hemopexin, hepicidin).\nMyoglobin+SnPP: To 5 mg of dry myoglobin was added 0.9 ml of PBS+0.1 ml of a stock SnPP solution (50 umole/ml). The resulting final concentrations were 5 mg/ml myoglobin+5 umoles/ml of SnPP. The tail vein was injected with 200 ul of this solution, which equals 1 mg myoglobin+1 umole SnPP. […]\nFour hr post myoglobin vs myoglobin+SnPP vs SnPP alone experiments. To confirm that the myoglobin+SnPP has a synergistic effect in inducing HO-1 mRNA and HO-1 protein levels, each of the above combinations have been administered alone via tail vein injection. Four hrs later, the mice were sacrificed as noted above and the kidneys were harvested for assessment of HO-1 mRNA and protein levels. For additional information regarding methods, see Zager et al., Am J Physiol Renal Physiol. 2014 Jul. 30. Pii."}, "[1]": {"set-up": "species or system mice", "conditions": "mouse, in vivo, iv"}, "HO-1 [2]": {"tested_on": "HO-1", "assay": "Renal cortical HO-1 mRNA (RT-PCR) and protein (ELISA) after N-Mgb, SnPP or both", "type": "in vivo, mice", "method": "(§1) Thirty-two mice were divided into 4 equal groups: (1) control mice; (2) mice treated with 1 mg of N-Mgb injection (as a bolus through the tail vein); (3) mice treated with […] of SnPP (via tail vein); and (4) mice treated with combined N-Mgb 1 SnPP. After either 4 hours (n=16) or 18 hours (n=16), the mice were deeply anesthetized with pentobarbital (50 mg/kg), the abdomen was opened through a midline abdominal incision, and the kidneys were removed. To determine potential effects on extrarenal organs, a liver lobe and the heart were also removed. The tissues were iced and then extracted for protein and RNA (RNeasy Plus Mini; Qiagen, Valencia, Calif.) and subjected to enzyme linked immunosorbent assay (ELISA) and reverse transcriptase polymerase chain reaction (RT-PCR) for HO-1, haptoglobin, and IL-10 protein and messenger RNAs (mRNAs). Zager et al. J Am Soc Nephrol 2014;25:998-1012; Zager et al. Am J Physiol 2012;303:F139-48. As an assessment of renal function, control mice and the 18 hour after N-Mgb+SnPP—treated mice had blood urea nitrogen (BUN) and plasma creatinine levels measured. Additionally, transverse 10% formalin fixed kidney sections ([…]) were cut and stained with hematoxylin and eosin (H&E) and periodic acid Schiff (PAS) to further assess potential injury."}, "Haptoglobin": {"tested_on": "Haptoglobin", "assay": "Renal cortical haptoglobin mRNA and protein after N-Mgb, SnPP or both", "type": "in vivo, mice", "conditions": "renal cortex, 4 h after Rx treatment", "method": "as §1"}, "IL-10": {"tested_on": "IL-10", "assay": "Renal cortical IL-10 mRNA and protein after N-Mgb, SnPP or both", "type": "in vivo, mice", "method": "as §1"}, "HO-1 [3]": {"tested_on": "HO-1", "assay": "Cardiac HO-1 mRNA and protein after N-Mgb, SnPP or both", "type": "in vivo, mice", "conditions": "18 h after Rx treatment", "method": "as §1"}, "[4]": {"assay": "Maleate model of AKI (FeS, SnPP, FeS+SnPP)", "type": "in vivo, mice", "conditions": "IV 1 mg FeS and/or 1 μmole SnPP 18 hrs before IP Na maleate 800 mg/Kg; 18 hrs later", "description": "Effects of Fe sucrose (FeS)/tin protoporphyrin (SnPP) on AKI severity. Maleate model of AKI. When injected into rodents, maleate undergoes relatively selective proximal tubule cell uptake via organic anion transporters. Once intracellular accumulation occurs, maleate is a preferred substrate for succinyl-CoA:3-oxoacid CoA transferase. […] Ample levels of CoA are essential for fatty acid “activation”, allowing for their subsequent metabolism through the Krebs cycle, yielding ATP. In the absence of this process, proximal tubule ATP depletion and cell injury result. Additionally, maleate conjugates the sulfhydryl group of glutathione (GSH), culminating in GSH depletion and potential oxidant tubular stress.\nThe following experiment tested whether FeS, SnPP or combined FeS+SnPP can mitigate this form of acute kidney injury (AKI). Twenty seven mice were subjected to 200 μL IV tail injections of one of the following: 1) vehicle (phosphate buffered saline, PBS; n, 10); 2) 1 mg FeS (American Regent (Shirley, N.Y.; n, 3); 3) 1 μmole SnPP (Frontier Scientific, Logan, Utah; n 7), or FeS+SnPP, n, 7). Eighteen hrs later, all mice received an IP injection of Na maleate (800 mg/Kg; in 500 ul of PBS). […] The severity of kidney injury was assessed by determining plasma blood urea nitrogen (BUN) and plasma creatinine (PCr) concentrations."}, "[5]": {"tested_on": "Mgb-exposed cultured proximal tubule (HK-2) cells", "conditions": "Zager & Burkhart, Kidney Int 1997; cited from earlier work"}}, "note": "Where “and” joins values, the source holds several entries; their conditions need not be identical. Equal entries are not always repeated.", "data": [{"smiles": "C=Cc1c2[n-]c(c1C)/C=c1\\[n-]/c(c(C)c1C=C)=C\\c1[n-]c(c(CCC(=O)O)c1C)C=c1[n-]/c(c(C)c1CCC(=O)O)=C\\2.[Sn+4]", "note": "[SnPP, Sn-protoporphyrin, reference compound]", "values": [{"measurement": "HO-1 mRNA induction (HO-1/GAPDH mRNA), Average", "setting": "HO-1 mRNA; average", "value": 6.94, "unit": "HO-1/GAPDH mRNA"}, {"measurement": "HO-1 mRNA induction (HO-1/GAPDH mRNA), individual mice", "setting": "HO-1 mRNA; single animals", "value": "9.72 HO-1/GAPDH mRNA and 8.25 HO-1/GAPDH mRNA and 6.95 HO-1/GAPDH mRNA and 2.85 HO-1/GAPDH mRNA"}, {"measurement": "Plasma LDH, Average", "setting": "[1]", "value": 4.51, "unit": "Absorbance U LDH/ml"}, {"measurement": "increase in renal HO-1 mRNA", "setting": "HO-1 [2]; 4 hours after IV injection, vs controls", "value": "only modest increases"}, {"measurement": "increase in renal HO-1 protein", "setting": "HO-1 [2]; 18 hours post-treatment, vs control values", "value": "only relatively small HO-1 protein increases"}, {"measurement": "Kidney Haptoglobin (protein)", "setting": "Haptoglobin", "value": "13.1 ± 1.3"}, {"measurement": "increase in renal IL-10 mRNA", "setting": "IL-10; 4 hours after injection", "value": "either minimal or no impact"}, {"measurement": "increase in renal IL-10 protein", "setting": "IL-10; 18 hours after injection", "value": "absence of IL-10 protein increases"}, {"measurement": "Kidney IL-10 (protein)", "setting": "IL-10; renal cortex, 4 h after Rx treatment", "value": "550 ± 86"}, {"measurement": "Cardiac mRNA HO-1", "setting": "HO-1 [3]", "value": "0.09 ± 0.03"}, {"measurement": "reductions in BUN/PCr concentrations, maleate-induced AKI", "setting": "[4]", "value": "Neither SnPP alone nor FeS alone significantly altered the severity of renal injury"}, {"measurement": "reduction of Mgb toxicity by SnPP addition", "setting": "[5]", "value": "≤ 85", "unit": "%"}]}]}
